Results reported in PMC2879362, “Design of Group IIA Secreted/Synovial Phospholipase A2 Inhibitors: An Oxadiazolone Derivative Suppresses Chondrocyte Prostaglandin E2 Secretion” (PLoS ONE, 2010).
“Also recorded” adds a separate entry of the source.

How the values were obtained:
[1] = tested on: rabbit articular chondrocytes; experiment: MTT cell viability of IL-1β-treated articular chondrocytes; assay type: cell-based; details: IL-1β 1 ng/mL 20 h
Method: We assessed the viability of the chondrocytes by MTT assay to evaluate the cytotoxic effects of C8 on these cells. Chondrocytes were treated for 20 h with 1 ng/mL IL-1β alone or 1 h after the addition of C8 at 0.31 to 9.92 µM, which corresponded to 0.5- to 5-fold the IC50 of C8 on human GIIAPLA2 activity (Table 2). Three different culture medium compositions were used: DMEM alone, or supplemented with 0.1% BSA or 2% FCS. […] Thus, we evaluated the anti-inflammatory activity of C8 in culture conditions from 0.31 to 1.24 µM in DMEM alone and from 0.31 to 4.96 µM in DMEM supplemented with 0.1% BSA or 2% FCS.
(§1) Articular chondrocytes were isolated from 5-week-old Fauve de Bourgogne female rabbits (CPA, Orleans, France) and cultured at the first passage in conditions avoiding cell dedifferentiation as previously described. Cells were cultured at 37°C in 12-well plates in Ham's F-12 medium containing 10% FCS, 20 IU/mL penicillin, and 20 µg/mL streptomycin (all from Invitrogen) until nearly confluent. Then medium was replaced with DMEM (Invitrogen) containing 20 IU/mL penicillin, and 20 µg/mL streptomycin and, if necessary, 0.1% fatty acid free BSA (Sigma) or 2% FCS. At this time the C8 compound dissolved in DMSO (Sigma) was added to the medium (the amount of DMSO was kept at 1‰ (v/v) in all the wells). 1 h after the addition of C8, IL-1β (PeproTech) was added to the medium. Consequently, chondrocytes were incubated for 20 h with IL-1β and for 21 h with C8.
At 18 h after the addition of IL-1β, 3-[4,5-dimethylthiazol-2-yl]-2,5-diphenyl tetrazolium bromide (MTT; Sigma) was added to the cell culture medium at 0.5 mg/mL. Cells were incubated 2 more hours at 37°C. The medium was then removed, and DMSO was added to dissolve the formazan crystals. The absorbance of the resulting solution was spectrophotometrically measured at 570 and 690 nm (background). The value corresponding to absorbance570nm - absorbance690nm was directly proportional to the number and activity of the viable cells.

iNOS = experiment: Western blot of iNOS protein level in IL-1β-treated chondrocytes; assay type: cell-based, rabbit; details: C8 0.31-1.24 µM in DMEM, IL-1β 20 h
Method: (§2) As expected, COX-1 protein was detectable but COX-2 and iNOS proteins were undetectable in untreated control conditions (Fig. 6A). […] Consequently, the protein ratio of COX-1 to COX-2 was not modified by C8 (Fig. 6B). […] Cell lysates were centrifuged for 15 min at 14000 rpm at 4°C and supernatants were collected. Protein concentrations were determined by the Bradford method by use of the Protein Assay dye reagent (Bio-Rad). Protein extracts (20 µg) were size-separated by SDS-PAGE in a 10% (w/v) polyacrylamide gel and electroblotted to a nitrocellulose membrane. Equal protein loading and transfer was confirmed by staining the membrane with Ponceau Red [0.2% (w/v) in H2O:acetic acid 99∶1]. The membrane was sequentially incubated with antibodies against COX-1 (1∶200, Santa Cruz Biotechnology), COX-2 (1∶500, Santa Cruz Biotechnology), iNOS (1∶400, BD Biosciences) or α-tubulin (1∶100, Santa Cruz Biotechnology) and then with peroxidase-conjugated donkey anti-goat IgG (1∶20000) or donkey anti-rabbit IgG (1∶200, both Santa Cruz Biotechnology). Immunocomplexes were detected by an enhanced chemiluminescence kit (Amersham Bioscience). The membrane was stripped by incubation in 0.2 M NaOH between successive immunodetections. Semi-quantitative scanning densitometry involved use of the ImageJ program (NIH, USA).

COX-2 = experiment: Western blot of COX-2 protein level in IL-1β-treated chondrocytes; assay type: cell-based, rabbit; details: C8 0.31-1.24 µM in DMEM, IL-1β 20 h
Method: as §2

[2] = tested on: IL-1β-stimulated NO secretion in articular chondrocytes; experiment: IL-1β-stimulated NO (nitrite) secretion in articular chondrocytes (Griess); assay type: cell-based, rabbit
Method: We tested the effect of C8 on the IL-1β-stimulated secretion of NO in chondrocytes. NO is a mediator of immune and inflammatory responses. In vitro, IL-1β induces the expression of inducible NO synthase (iNOS) by chondrocytes, and consequently an increase in NO production. NO secretion, evaluated by nitrite concentration in the cell culture medium, represents a reliable IL-1β-dependent and PLA2-independent inflammatory marker in our cell model. Chondrocytes were treated for 20 h with IL-1β alone or 1 h after the addition of C8.
as §1
20 h after the addition of IL-1β to the chondrocytes, culture media were collected, and aliquots were stored at −80°C until PGE2 and nitrite quantification. PGE2 concentration in culture media was determined by use of an enzyme immunoassay (EIA) kit (PGE2 EIA Kit-monoclonal; Cayman Chemical). Nitrite concentration was determined by a spectrophotometry method based on the Griess reaction. Briefly, 200 µL of culture medium or sodium nitrite (NaNO2, Merck) standard dilutions were mixed with 100 µL Griess reagent [0.5% (w/v) sulphanilic acid (Merck), 0.05% (w/v) N(1-naphtyl)ethylenediamine (Merck), 30% (v/v) acetic acid, 1.5 N HCl] and incubated for 10 min at 50°C. The absorbance was measured at 540 nm.

O=c1[nH]c(Cc2ccc(OCCCCCOc3cc4ccccc4c4ccccc34)cc2)no1 [C8]
cytotoxic effects (MTT) ([1]; DMEM alone, C8 at 0.31 to 2.48 µM): no cytotoxic effects
cytotoxic effects (MTT) ([1]; DMEM with 0.1% BSA, C8 at 0.31 to 9.92 µM): no cytotoxic effects; also recorded: did not decrease cell viability
cytotoxic effects (MTT) ([1]; DMEM with 2% FCS, C8 at 0.31 to 9.92 µM): no cytotoxic effects; also recorded: did not decrease cell viability
effect on iNOS protein level (iNOS): did not alter
effect on COX-2 protein level (COX-2): did not alter
inhibition of IL-1β-stimulated nitrite secretion ([2]; DMEM + 0.1% BSA, IL-1β 20 h): did not significantly inhibit
decrease of IL-1β-induced nitrite production ([2]; DMEM + 2% FCS, C8 1.24 µM): 17%
decrease of IL-1β-induced nitrite production ([2]; DMEM + 2% FCS, C8 2.48 µM): 19%
decrease of IL-1β-induced nitrite production ([2]; DMEM + 2% FCS, C8 4.96 µM): 21%
inhibition of IL-1β-stimulated nitrite secretion ([2]; DMEM + 2% FCS, C8 at 0.31, 0.62 and 0.94 µM): did not inhibit
inhibition of IL-1β-stimulated nitrite secretion ([2]; DMEM medium alone, IL-1β 20 h): did not significantly inhibit
